These results are taken from ChEMBL document CHEMBL3507680, “University of Dundee, Gates Library screen for HepG2 cell viability”.

This series is described as follows: Human HepG2 cell viability assay in 384 well format. The class given is toxicity, cell-based. Set-up: dose 125 nL, time 70.5 hour; cytotoxicity at 70.5 h: concentration not given beside the values. To be noted: HepG2 cells, read-out: Inhibition.
Turning to `CCOC(=O)C1(Cc2cccc(OC)c2)CCN(Cc2ccon2)CC1`, the cytotoxicity at 70.5 h was -11.6%. To `CC(C)c1nnc2n1CCN(Cc1ccc3c(c1)OCO3)CC2` belongs -11.5%; to `COc1cccc(N2CCN(Cc3cccc(CCN)c3)CC2=O)c1`, -6.65%; to `COCCn1c(=O)n(Cc2ccc(Cl)s2)c2cc(C(=O)O)ccc21`, -10.7%. To `c1cnn(CCC2CCCCN2Cc2cnc(C3CCCCC3)nc2)c1` (configuration not stated) belongs -8.97%; to `O=C1N(CCCc2ccccc2)CCCC1(O)CNCC1CCCCC1` (configuration not stated), 6.76%. With `COc1cc(O)ccc1CN1CCN(C2CCc3ccccc3C2)CC1` (configuration not stated) the figure was -3.26%; with `CC(C)(N)c1cn(C2CCN(C(=O)CCC3CCCCC3)CC2)nn1`, -5.04%; with `CC(=O)N1C[C@H](NC(=O)c2csc(C(C)C)c2)[C@@H](C(C)C)C1`, 14.4%. Take `C=Cc1cccc(CN(Cc2cnn(C)c2)C2CC2)c1`: the cytotoxicity at 70.5 h was -9.54%. With `CN1CCC(NCC2(O)CCCN(Cc3ccccc3F)C2=O)CC1` (configuration not stated) the figure was -4.92%; with `CCN1CC(C(=O)N2CCc3cc(C(N)=O)n(C)c3C2)CC1=O` (configuration not stated), -2.91%; with `Nc1cc(C(=O)N2CCC(Oc3cccc(C(F)(F)F)c3)CC2)ccn1`, -3.83%. With `CCO[C@H]1CN(C)C[C@@H]1NC(=O)c1cc(C)nc2ccc(C)cc12` the figure was -6.33%. To `CCN(CC)S(=O)(=O)N1CCCC(c2nccn2Cc2cccnc2)C1` (configuration not stated) belongs -5.79%; to `COc1cccc2c1OCC(NCc1cnn(-c3ccccc3F)c1)C2` (configuration not stated), -0.785%; to `Cc1cc2ccccc2n1CCC(=O)N1CCCCC1CCO` (configuration not stated), -6.95%.

In the case of `Cc1nc2c(c(NC3CC3)n1)CCN(C(=O)CCc1cccnc1)CC2`, the cytotoxicity at 70.5 h came to 12.4%. With `CNc1nc(C(=O)N2C[C@H]3CC[C@@H]2CN(C2CCOCC2)C3)cs1`, the cytotoxicity at 70.5 h is -10.2%. To `CCc1nc(C)c(C2CC(=O)Nc3c2c(C(C)(C)C)nn3C)[nH]1` (configuration not stated) belongs 0.46%.

As for `CC(C)=CCN1C(=O)[C@H]2CC[C@@H]1CN(c1ncccn1)C2`, the cytotoxicity at 70.5 h was -21%.

`CC(=O)c1cn(CC(=O)N2CCC(O)(CO)CC2)c2ccccc12`: the cytotoxicity at 70.5 h is -0.902%.

For the compound `O=C(O)C1(n2ccc(-c3ccco3)n2)CCN(Cc2ccsc2)CC1`, the cytotoxicity at 70.5 h is -1.95%. With `Cn1ncc2c(N3CCN4CCCCC4C3)nc(C3CCCC3)nc21` (configuration not stated) the figure was -0.0598%; with `Cc1nc(C(=O)N2CCN(C(=O)C3CCC3)[C@@H]3CS(=O)(=O)C[C@@H]32)cs1`, 2.83%. To `C=C(C)COc1ccccc1C(=O)N1CCC(C(=O)NCC)C1` (configuration not stated) belongs -0.0263%; to `OC(c1ccccn1)C1CCN(Cc2cc3n(n2)CCNC3)CC1` (configuration not stated), 17.1%. To `CCC(CO)N(Cc1cccnc1)C(=O)c1ccc(C)[nH]c1=O` (configuration not stated) belongs -7.73%; to `Cc1cc(C(F)(F)F)nc(CNc2nc(C)nc3c2cnn3C)n1`, -7.38%. Take `Cc1nc2cc(C(=O)N3C[C@@H](C(=O)O)[C@H](C4CC4)C3)ccc2[nH]1`: the cytotoxicity at 70.5 h was -3.58%. Regarding `Cc1nc(C)c(C)c(NCc2cnn3cccnc23)n1`, the cytotoxicity at 70.5 h was 3.17%.

With `O=C(c1cccnc1)C1CCCN(c2nnc(C3CC3)o2)C1` (configuration not stated), the cytotoxicity at 70.5 h was -1.21%. With `CCCN1CCC(Cc2noc(-c3[nH]cnc3C)n2)CC1` the figure was 6.08%. To `Cc1nn(C)c2nc(N(C)CCN(C)C3CCCC3)sc12` belongs 5.16%; to `O=C(c1ccccc1)N1CCCC(Nc2ccc(F)cc2)C1` (configuration not stated), -1.68%; to `COc1cccc([C@@H]2CCN(Cc3[nH]nc(C)c3Cl)C[C@H]2O)c1`, -22.1%. With `Cc1ccc(-c2cc(-c3nc(CN4CCN(C)CC4)no3)[nH]n2)s1` the figure was -10.5%; with `C[C@@H]1CN(C(=O)CSc2nncn2C)C[C@@]1(O)C1CC1`, -4.21%; with `Cc1cc(C(=O)N2CC[C@@]3(O)CCN(S(C)(=O)=O)C[C@H]3C2)c(C)n1C`, 18.6%. Turning to `CC(C)c1nccn1Cc1cc(C(=O)NCC(C)n2ccnc2)n[nH]1` (configuration not stated), the cytotoxicity at 70.5 h was -6.98%. To `Cc1ccc(C(C(=O)NCCN2CCC(CO)CC2)N(C)C)cc1` (configuration not stated) belongs 27.1%; to `CCn1cc(CN(C)c2nc(C)c3ccc(S(C)(=O)=O)cc3n2)cn1`, -5.64%; to `COCCN(Cc1ccncc1)C(=O)CCSCc1ccc(F)cc1`, 20%. As to `CC(C(=O)N(C)C)N1CCc2onc(-c3cccc(F)c3)c2C1` (configuration not stated), the cytotoxicity at 70.5 h is -5.12%. To `C=C(C)COc1cccc(C(=O)N(C)C(C)c2c(C)n[nH]c2C)c1` (configuration not stated) belongs -4.42%.

Consider `COc1cnc(N2CCN(C)CC2)nc1-c1ccnn1C`, for which the cytotoxicity at 70.5 h is -6.6%. With `CN(CCc1cnn(C)c1)C(=O)CN1C(=O)OC[C@@H]1c1ccccc1` the figure was -5.22%; with `Cc1cc(C)nc(CCNc2nccc(CCC(F)(F)F)n2)n1`, 8.35%; with `Cc1cccc2[nH]c(C3CCCN(Cc4ccc(CO)o4)C3)nc12` (configuration not stated), 4.96%. With `CC(C)[C@@H]1CN(C(=O)C2(c3ccccc3)CCN(C)CC2)C[C@H]1N(C)C` the figure was 9.05%; with `CC(C)CN1CC(C(=O)NCCc2c[nH]cn2)CC1=O` (configuration not stated), -0.927%; with `CC(=O)NCC1CCCN(Cc2nc(Cc3ccccc3F)no2)C1` (configuration not stated), 0.817%.

Consider `COc1cc2c(cc1-c1nc3c(cnn3C(C)C)[nH]1)OCO2`, for which the cytotoxicity at 70.5 h was -0.0981%. To `CC(C)c1cc(NCc2csc(C(C)C)n2)nc(N)n1` belongs 24.3%; to `CC(C)(O)c1cn(C2CCN(C(=O)CCc3ccncc3)CC2)nn1`, -4.73%.

Consider `Cc1[nH]c2ccccc2c1CCNc1ncnc2c1CCNCC2`, for which the cytotoxicity at 70.5 h was determined as 0.111%. To `O=c1cnc2ccccc2n1CCCn1cccn1` belongs 24.6%; to `CCN1CC(C(=O)N2CC(Oc3ccccc3Cl)C2)CC1=O` (configuration not stated), -1.71%; to `Cc1cnc(NCCCN2CCCCC2CO)nc1` (configuration not stated), -1.85%.

As to `CCC(CO)N(Cc1ccsc1)CC1CC1` (configuration not stated), the cytotoxicity at 70.5 h is -4.03%. With `Cc1nc[nH]c1CNCc1cccnc1N(C)C1CCCCC1` the figure was -6%; with `NS(=O)(=O)c1ccc(F)c(C(=O)NCCSC2CCCCC2)c1`, -9.09%; with `O=C(c1cnc2c(c1)CCC2)N1CCCC(CO)(CC2CC2)C1` (configuration not stated), -9.59%. As for `O=C(c1cnc(COc2ccccc2)nc1O)N1CCC(F)(F)CC1`, the cytotoxicity at 70.5 h was -5.82%. With `Cc1nc(N(C)C)ncc1C(=O)NCCCn1nccc1C1CC1` the figure was 6.49%; with `O=C(CN1CCCC1c1nc(-c2ccccn2)no1)N1CCOCC1` (configuration not stated), -7.89%. With `CCN(C)Cc1n[nH]c(=O)n1-c1ccc(C)c(C)c1` the figure was -11.7%.

Consider `O=C(CN1CCC2(CCCN(CCO)C2=O)C1)NCCc1ccccc1` (configuration not stated), for which the cytotoxicity at 70.5 h was determined as 11.6%. With `CCN(CCOC)C(=O)CCc1scnc1C`, the cytotoxicity at 70.5 h was -2.82%. With `CN(Cc1ccc2nsnc2c1)CC1(O)CNCCOC1` (configuration not stated) the figure was -6.32%; with `Nc1ccc(C(=O)N2CCC(Oc3cccc(C(F)(F)F)c3)CC2)cn1`, -0.861%; with `COCCN1CC(c2nc(CSC)no2)CCC1=O` (configuration not stated), 2.97%.

Take `N#Cc1ccc(Oc2cc(F)c(CN3CCCC3)c(F)c2)nc1`: the cytotoxicity at 70.5 h was -2.2%. To `CC(C)[C@H]1CN(S(C)(=O)=O)C[C@@H]1NC(=O)c1ccnc(N)c1` belongs -1.08%; to `COCc1noc(-c2ccc(N3CCC[C@H]3CO)nc2)n1`, -7.06%.

As for `Nc1cc(-c2cc[nH]n2)nc(N2CCCC2)n1`, the cytotoxicity at 70.5 h turned out to be 5.5%.

For `Cc1ncsc1CCN(C)C(=O)CN1C(=O)OC[C@@H]1c1ccccc1`, the cytotoxicity at 70.5 h came out at 4.46%.

For the compound `O=C1CCCCCN1CCc1nc(-c2cccnn2)no1`, the cytotoxicity at 70.5 h is -6.78%. To `CN1CCN(c2cccc(NC(=O)NCc3csc(N(C)C)n3)c2)C1=O` belongs 35.3%; to `CC1c2cccn2CCN1C(=O)CCc1nc(-c2ccccc2)no1` (configuration not stated), -5.32%; to `CC(C)Cc1ncc2c(n1)CN(c1nccc(NC(C)C)n1)C2`, 2.52%. To `CNc1ncccc1C(=O)N1CCN(C)C2(CCN(C)CC2)C1` belongs -7.09%; to `Cc1ccc(CSc2nc(N)cc(NCCS(=O)(=O)N(C)C)n2)cc1`, -2.68%; to `CCCc1cc(C(=O)N(C)Cc2ccc(OC)c3ncccc23)n(C)n1`, 2%. To `O[C@H]1Cc2ccccc2[C@H]1n1ccnc1-c1cc2n(n1)CCNC2` belongs -2.39%. Regarding `COCCN1C[C@H]2CC[C@@H]1CN(C(=O)CCn1cc(Cl)cn1)C2`, the cytotoxicity at 70.5 h was -10.6%. Regarding `Cc1ccc2nc(C(=O)N3C[C@@H](C(=O)O)[C@H](c4cccnc4)C3)cn2c1`, the cytotoxicity at 70.5 h was -5.46%.

With `N[C@H]1CN(C(=O)c2ccccc2OCCc2ccccc2)C[C@@H]1C1CC1`, the cytotoxicity at 70.5 h is -8.08%.

Regarding `CCn1cnnc1Cn1cccc(C(F)(F)F)c1=O`, the cytotoxicity at 70.5 h turned out to be 4.98%.

As for `CCc1cnc(C)nc1NC(CC)c1cnn(C)c1` (configuration not stated), the cytotoxicity at 70.5 h is -2.39%.

Consider `O=C(O)[C@@H]1CN(C(=O)c2ccc3[nH]nnc3c2)C[C@H]1c1ccccc1`, for which the cytotoxicity at 70.5 h is -4.96%. As to `CC(C)N1CCCC(C(=O)N2CCN(c3cccc(C(=O)O)c3)CC2)C1` (configuration not stated), the cytotoxicity at 70.5 h was 23.2%.

Regarding `O[C@@H]1CN(c2nc3ccccc3o2)CC[C@H]1c1ccc2c(c1)OCO2`, the cytotoxicity at 70.5 h stood at 14.9%.

For the compound `CN1CCCCCC1C(=O)N1CCN(c2ccccc2C#N)CC1` (configuration not stated), the cytotoxicity at 70.5 h is -8.6%. As to `N#Cc1cccc(NC(=O)N2CCC3(CCC(=O)N(C4CC4)C3)CC2)c1`, the cytotoxicity at 70.5 h is -2.97%. With `CCCN1CCC(N2CCC(Cn3cc(C4CC4)nn3)CC2)CC1` the figure was -8.35%. To `Nc1nc2c(c(N3CCOCC3)n1)CCN(C(=O)c1ccc[nH]1)CC2` belongs -7.85%.
